The source of these data is patent US8946215B2, “Hydroxy-substituted imidazo[1,2-a]pyridinecarboxamides and their use” (Bayer Pharma Aktiengesellschaft, priority 2012, dated 2015).

SMILES strings stand for the structures. Where a name gives a salt, the structure may show the parent alone.

The experiment addresses T1, recombinant guanylate cyclase reporter cell line (Rattus norvegicus, UniProt P19686+P20595).
T1 construct: expressed in transfected cells
T1 sequence (P20595 1-619): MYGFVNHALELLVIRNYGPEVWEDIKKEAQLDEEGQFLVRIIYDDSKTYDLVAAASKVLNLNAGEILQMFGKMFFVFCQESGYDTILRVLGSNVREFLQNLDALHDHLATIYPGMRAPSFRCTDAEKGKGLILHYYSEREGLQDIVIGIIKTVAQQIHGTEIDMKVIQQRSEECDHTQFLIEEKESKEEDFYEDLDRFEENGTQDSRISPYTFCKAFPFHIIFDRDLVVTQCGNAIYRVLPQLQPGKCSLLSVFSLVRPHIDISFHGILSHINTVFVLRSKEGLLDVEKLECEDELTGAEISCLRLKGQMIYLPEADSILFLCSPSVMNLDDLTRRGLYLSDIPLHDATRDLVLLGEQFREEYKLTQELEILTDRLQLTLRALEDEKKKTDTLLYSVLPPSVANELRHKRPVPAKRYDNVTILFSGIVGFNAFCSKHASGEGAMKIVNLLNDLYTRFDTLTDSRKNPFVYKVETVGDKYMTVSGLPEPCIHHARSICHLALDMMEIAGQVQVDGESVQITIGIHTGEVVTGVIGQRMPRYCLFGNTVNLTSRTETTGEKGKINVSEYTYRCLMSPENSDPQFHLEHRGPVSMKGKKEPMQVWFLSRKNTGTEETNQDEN
T1 sequence (P19686 1-690): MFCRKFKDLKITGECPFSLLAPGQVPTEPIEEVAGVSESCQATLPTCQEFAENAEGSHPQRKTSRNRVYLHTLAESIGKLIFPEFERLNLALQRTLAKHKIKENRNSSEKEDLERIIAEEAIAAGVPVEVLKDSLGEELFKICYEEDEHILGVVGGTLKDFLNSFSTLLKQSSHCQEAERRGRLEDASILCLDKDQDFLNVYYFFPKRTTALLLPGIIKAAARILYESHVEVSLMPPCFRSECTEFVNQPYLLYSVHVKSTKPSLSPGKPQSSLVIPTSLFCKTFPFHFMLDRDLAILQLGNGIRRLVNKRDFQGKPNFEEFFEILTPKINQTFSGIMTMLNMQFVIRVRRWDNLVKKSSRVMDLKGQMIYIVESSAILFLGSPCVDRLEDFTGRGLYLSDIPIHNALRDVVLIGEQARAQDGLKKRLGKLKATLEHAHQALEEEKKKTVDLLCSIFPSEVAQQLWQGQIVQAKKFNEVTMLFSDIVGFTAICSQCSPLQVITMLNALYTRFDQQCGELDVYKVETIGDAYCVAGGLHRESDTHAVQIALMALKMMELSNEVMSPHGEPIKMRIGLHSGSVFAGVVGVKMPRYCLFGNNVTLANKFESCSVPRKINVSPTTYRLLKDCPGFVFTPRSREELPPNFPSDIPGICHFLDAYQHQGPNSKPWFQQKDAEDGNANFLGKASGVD
The experiment is described as follows: Action on recombinant guanylate cyclase reporter cell line. The experiment is classed as cell-based. To be noted: in some cases mean values obtained from individual determinations. Summed up:
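Cell-based reporter assay with recombinant guanylate cyclase expressed in a reporter cell line, per a published method. Activity reported as minimal effective concentration (MEC), in some cases as the mean of individual determinations.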

As for `CC[C@H](CO)NC(=O)c1c(C)nc2c(OCc3cccc(Cl)c3Cl)cccn12` [Example 45, 8-[(2,3-dichlorobenzyl)oxy]-N-[(2R)-1-hydroxybutan-2-yl]-2-methylimidazo[1,2-a]-pyridine-3-carboxamide], the “MEC (minimal effective concentration)” value was 0.65 µM.
Regarding `Cc1nc2c(OCc3ccccc3)cccn2c1C(=O)N[C@@H](C)CO` [Example 46, 8-(Benzyloxy)-N-[(2S)-1-hydroxypropan-2-yl]-2-methylimidazo[1,2-a]pyridine-3-carboxamide], the “MEC (minimal effective concentration)” value was found to be 3.0 µM.
For `Cc1nc2c(OCc3cccc(Cl)c3Cl)cccn2c1C(=O)NCCC1(O)CCCC1` [Example 47, 8-[(2,3-dichlorobenzyl)oxy]-N-[2-(1-hydroxycyclopentyl)ethyl]-2-methylimidazo[1,2-a]-pyridine-3-carboxamide] the value was 0.3 µM.
For `Cc1nc2c(OCc3ccccc3)cccn2c1C(=O)NCCC1(O)CCCC1` [Example 48, 8-(benzyloxy)-N-[2-(1-hydroxycyclopentyl)ethyl]-2-methylimidazo[1,2-a]pyridine-3-carboxamide], the “MEC (minimal effective concentration)” value turned out to be 1.0 µM.
As for `Cc1nc2c(OCc3cccc(Cl)c3Cl)cccn2c1C(=O)NC(CO)CO` [Example 49, 8-[(2,3-dichlorobenzyl)oxy]-N-(1,3-dihydroxypropan-2-yl)-2-methylimidazo[1,2-a]-pyridine-3-carboxamide], the figure is 2.0 µM; as for `Cc1nc2c(OCc3ccccc3F)cccn2c1C(=O)NC(CO)CO` [Example 51, N-(1,3-dihydroxypropan-2-yl)-8-[(2-fluorobenzyl)oxy]-2-methylimidazo[1,2-a]pyridine-3-carboxamide], 5.5 µM.
Regarding `Cc1cccc(COc2cccn3c(C(=O)NC(CO)CO)c(C)nc23)c1Cl` [Example 52, 8-[(2-chloro-3-methylbenzyl)oxy]-N-(1,3-dihydroxypropan-2-yl)-2-methylimidazo[1,2-a]-pyridine-3-carboxamide], the “MEC (minimal effective concentration)” value amounted to 10 µM.
For `Cc1nc2c(OCc3c(Cl)cccc3Cl)cccn2c1C(=O)NC(CO)CO` [Example 53, 8-[(2,6-dichlorobenzyl)oxy]-N-(1,3-dihydroxypropan-2-yl)-2-methylimidazo[1,2-a]-pyridine-3-carboxamide] the value was 10 µM.
For `CCc1nc2c(OCC3CCCCC3)cccn2c1C(=O)N[C@H](C)CO` [Example 55, 8-(Cyclohexylmethoxy)-2-ethyl-N-[(2R)-1-hydroxypropan-2-yl]imidazo[1,2-a]pyridine-3-carboxamide formic acid salt] the value was 0.1 µM.
On to `C[C@@H](CO)NC(=O)c1c(C(F)(F)F)nc2c(OCC3CCCCC3)cccn12` [Example 56, 8-(cyclohexylmethoxy)-N-[(2S)-1-hydroxypropan-2-yl]-2-(trifluoromethyl)imidazo[1,2-a]pyridine-3-carboxamide], for which the “MEC (minimal effective concentration)” value is 1.0 µM.
As for `CCCc1nc2c(OCC3CCCCC3)cccn2c1C(=O)N[C@@H](C)CO` [Example 57, 8-(cyclohexylmethoxy)-N-[(2S)-1-hydroxypropan-2-yl]-2-propylimidazo[1,2-a]-pyridine-3-carboxamide], the figure is 1.0 µM.
With `CCc1nc2c(OCC3CCC3)cccn2c1C(=O)N[C@@H](C)CO` [Example 58, 8-(cyclobutylmethoxy)-2-ethyl-N-[(2S)-1-hydroxypropan-2-yl]imidazo[1,2-a]pyridine-3-carboxamide formic acid salt], the “MEC (minimal effective concentration)” value worked out at 3.0 µM.
As to `C[C@@H](CO)NC(=O)c1cnc2c(OCC3CCCCC3)cccn12` [Example 59, 8-(cyclohexylmethoxy)-N-[(2S)-1-hydroxypropan-2-yl]imidazo[1,2-a]pyridine-3-carboxamide], the “MEC (minimal effective concentration)” value stood at 3.0 µM.
As for `CCCC[C@H](CO)NC(=O)c1c(C)nc2c(OCc3c(F)cccc3F)cc(CC)cn12` [Example 60, 8-[(2,6-difluorobenzyl)oxy]-6-ethyl-N-[(2R)-1-hydroxyhexan-2-yl]-2-methylimidazo[1,2-a]pyridine-3-carboxamide], the figure is 0.1 µM; as for `CCCC[C@H](CO)NC(=O)c1c(C)nc2c(OCc3c(F)cccc3F)cc(C3CC3)cn12` [Example 61, 6-cyclopropyl-8-[(2,6-difluorobenzyl)oxy]-N-[(2R)-1-hydroxyhexan-2-yl]-2-methylimidazo[1,2-a]pyridine-3-carboxamide], 1.0 µM.
As to `CCCC[C@H](CO)NC(=O)c1cnc2c(OCc3c(F)cccc3F)cccn12` [Example 62, 8-[(2,6-difluorobenzyl)oxy]-N-[(2R)-1-hydroxyhexan-2-yl]imidazo[1,2-a]pyridine-3-carboxamide], the “MEC (minimal effective concentration)” value turned out to be 0.3 µM.
As for `CCCC[C@H](CO)NC(=O)c1c(C)nc2c(OCc3c(F)cccc3F)cc(N3CCOCC3)cn12` [Example 63, 8-[(2,6-difluorobenzyl)oxy]-N-[(2R)-1-hydroxyhexan-2-yl]-2-methyl-6-(morpholin-4-yl)imidazo[1,2-a]pyridine-3-carboxamide], the figure is 3.0 µM; as for `CCCC[C@H](CO)NC(=O)c1c(C)nc2c(OCc3c(F)cccc3F)cc(N3CCCC3)cn12` [Example 64, 8-[(2,6-difluorobenzyl)oxy]-N-[(2R)-1-hydroxyhexan-2-yl]-2-methyl-6-(pyrrolidin-1-yl)imidazo[1,2-a]pyridine-3-carboxamide], 3.0 µM; as for `CCCC[C@H](CO)NC(=O)c1c(C)nc2c(OCc3c(F)cccc3F)cc(Br)cn12` [Example 65, 6-bromo-8-[(2,6-difluorobenzyl)oxy]-N-[(2R)-1-hydroxyhexan-2-yl]-2-methylimidazo[1,2-a]pyridine-3-carboxamide], 0.03 µM.
For `CCC[C@H](CO)NC(=O)c1c(C)nc2c(OCC3CCCCC3)cccn12` [Example 67, 8-(cyclohexylmethoxy)-N-[(2R)-1-hydroxypentan-2-yl]-2-methylimidazo[1,2-a]pyridine-3-carboxamide] the value was 0.03 µM; for `Cc1nc2c(OCC3CCCCC3)cccn2c1C(=O)NC[C@H](O)CO` [Example 68, 8-(cyclohexylmethoxy)-N-[(2S)-2,3-dihydroxypropyl]-2-methylimidazo[1,2-a]pyridine-3-carboxamide], 0.03 µM.
Consider `CC[C@H](CO)NC(=O)c1c(C)nc2c(OCC3CCCCC3)cccn12` [Example 72, 8-(cyclohexylmethoxy)-N-[(2R)-1-hydroxybutan-2-yl]-2-methylimidazo[1,2-a]pyridine-3-carboxamide], for which the “MEC (minimal effective concentration)” value was found to be 0.1 µM.
For `Cc1nc2c(OCC3CCCCC3)cccn2c1C(=O)NCCCCO` [Example 74, 8-(cyclohexylmethoxy)-N-(4-hydroxybutyl)-2-methylimidazo[1,2-a]pyridine-3-carboxamide] the value was 0.2 µM.
Consider `Cc1nc2c(OCC3CCCCC3)cccn2c1C(=O)N[C@@H](C)CO` [Example 75, 8-(cyclohexylmethoxy)-N-[(2S)-1-hydroxypropan-2-yl]-2-methylimidazo[1,2-a]pyridine-3-carboxamide], for which the “MEC (minimal effective concentration)” value was determined as 0.22 µM.
For `Cc1nc2c(OCC3CCCCC3)cccn2c1C(=O)NCCO` [Example 76, 8-(cyclohexylmethoxy)-N-(2-hydroxyethyl)-2-methylimidazo[1,2-a]pyridine-3-carboxamide formate] the value was 0.3 µM; for `Cc1nc2c(OCC3CCCCC3)cccn2c1C(=O)NC(CO)(CO)CO` [Example 77, 8-(cyclohexylmethoxy)-N-[1,3-dihydroxy-2-(hydroxymethyl)propan-2-yl]-2-methylimidazo[1,2-a]pyridine-3-carboxamide formate], 0.3 µM; for `COCC(O)CNC(=O)c1c(C)nc2c(OCC3CCCCC3)cccn12` (stereo not drawn) [Example 79, 8-(cyclohexylmethoxy)-N-(2-hydroxy-3-methoxypropyl)-2-methylimidazo[1,2-a]pyridine-3-carboxamide], 0.3 µM.
